Values of other authors as cited in patent publication US20180177735A1, “Stable Pharmaceutical Composition Of Phytonadione And A Novel Process For Preparation Thereof” (Amneal Pharmaceuticals Company GmbH, priority 2016, published 2018).
Where two headings read alike, the source gives them in different places.

With `CC1=C(C/C=C(\C)CCC[C@H](C)CCC[C@H](C)CCCC(C)C)C(=O)c2ccccc2C1=O` [Phytonadione] as the molecule, how does the solubility (in chloroform) read?
Its solubility is “soluble”.

What about the solubility (in ethanol) of the same molecule?
The solubility was “slightly soluble (1 g of material requires 100 to 1000 ml of solute to dissolve)”.

What about the solubility (in water) of the same molecule?
The solubility was “insoluble”.
